Our source for the IC50, EC50 and AC50 values is ChEMBL document CHEMBL1201862, “PubChem BioAssay data set” (2004).

Each structure is given as a SMILES string. Structures can show the parent of a compound that is named as a salt. Calls of active or inactive are those of the source. For most assays here, no stated cut-off is given here; in the data, actives have a measured EC50 and inactives only a lower limit.

Test [1] deals with T1, Corticotropin-releasing factor receptor 2/Corticotropin-releasing factor-binding protein (Homo sapiens, UniProt P24387+Q13324).
T1 sequence (Q13324 whole entry): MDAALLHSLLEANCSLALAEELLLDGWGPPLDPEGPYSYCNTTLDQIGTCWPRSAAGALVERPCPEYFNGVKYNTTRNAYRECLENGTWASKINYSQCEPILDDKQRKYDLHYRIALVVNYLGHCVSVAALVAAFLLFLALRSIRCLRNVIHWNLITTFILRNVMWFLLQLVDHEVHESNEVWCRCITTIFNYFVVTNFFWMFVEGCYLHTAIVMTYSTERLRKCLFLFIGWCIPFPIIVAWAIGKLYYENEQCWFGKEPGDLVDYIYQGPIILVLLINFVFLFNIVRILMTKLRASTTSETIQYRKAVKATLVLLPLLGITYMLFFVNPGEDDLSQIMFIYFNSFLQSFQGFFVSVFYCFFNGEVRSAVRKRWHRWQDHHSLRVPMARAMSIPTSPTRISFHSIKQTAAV
T1 sequence (P24387 whole entry): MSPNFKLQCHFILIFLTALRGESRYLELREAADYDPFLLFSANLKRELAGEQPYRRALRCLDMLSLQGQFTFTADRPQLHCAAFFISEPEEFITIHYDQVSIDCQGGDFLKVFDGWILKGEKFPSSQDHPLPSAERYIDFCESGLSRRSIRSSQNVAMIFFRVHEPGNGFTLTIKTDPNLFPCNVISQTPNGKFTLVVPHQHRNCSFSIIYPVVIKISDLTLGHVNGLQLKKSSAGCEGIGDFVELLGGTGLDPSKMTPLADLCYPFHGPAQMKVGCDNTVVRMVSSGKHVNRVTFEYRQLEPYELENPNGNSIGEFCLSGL
Briefly: Dose Response confirmation of uHTS hits for small molecule antagonists of the CRF-binding protein and CRF-R2 receptor complex. The following applies: read-out: IC50_Mean. Format: functional.

The target in test [2] is T1, Corticotropin-releasing factor receptor 2/Corticotropin-releasing factor-binding protein. Briefly: activators of CRF receptor 2 with binding protein – uHTS hits, confirmation (AID 602473). Format: functional. Particulars: read-out: EC50_Mean.
Test [3] has as its target T2, Heat shock factor protein 1 (Mus musculus, UniProt P38532).
T2 sequence (P38532 whole entry): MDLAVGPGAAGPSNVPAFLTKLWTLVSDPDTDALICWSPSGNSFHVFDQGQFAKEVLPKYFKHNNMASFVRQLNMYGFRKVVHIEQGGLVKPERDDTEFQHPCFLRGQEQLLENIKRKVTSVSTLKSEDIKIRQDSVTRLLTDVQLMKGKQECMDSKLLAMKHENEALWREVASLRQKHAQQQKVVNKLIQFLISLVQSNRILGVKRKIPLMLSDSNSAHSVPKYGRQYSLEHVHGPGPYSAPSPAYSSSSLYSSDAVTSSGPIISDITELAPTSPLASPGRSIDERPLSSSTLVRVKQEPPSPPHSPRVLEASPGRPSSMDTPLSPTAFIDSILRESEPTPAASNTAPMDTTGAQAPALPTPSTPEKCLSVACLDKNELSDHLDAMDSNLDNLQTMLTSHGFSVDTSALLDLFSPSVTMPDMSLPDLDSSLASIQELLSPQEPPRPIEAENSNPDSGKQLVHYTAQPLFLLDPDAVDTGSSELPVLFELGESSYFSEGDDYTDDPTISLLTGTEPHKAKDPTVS
Briefly: HSF1 potentiators in luciferase reporter cells, confirmation, cell-based, NIH3T3, luminescence, dose retest (AID 435004).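 Further: stress induced by proteasome inhibitor MG132 added 30 min after compound; luciferase reporter driven by HSF1 response element in NIH3T3 cells; actives raise luminescence as potentiators of the MG132 stress response.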 Format: functional. Background: In a reporter assay the amount or activity of a reporter protein is the signal.

Another test concerns Streptococcus. Briefly: Group A Streptococcus viability loss, dose response, counter-screen for streptokinase expression inhibitor project, luminescence, BacTiterGlo (AID 1915).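 Further: potency for reduction of bacterial viability or growth.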 Format: functional, organism-based. On the technique in general: The purpose of a counterscreen is to sort out artefacts and off-target activity.
A further test addresses T3, Streptokinase A (Streptococcus pyogenes serotype M1, UniProt P10520).
T3 sequence (P10520 whole entry): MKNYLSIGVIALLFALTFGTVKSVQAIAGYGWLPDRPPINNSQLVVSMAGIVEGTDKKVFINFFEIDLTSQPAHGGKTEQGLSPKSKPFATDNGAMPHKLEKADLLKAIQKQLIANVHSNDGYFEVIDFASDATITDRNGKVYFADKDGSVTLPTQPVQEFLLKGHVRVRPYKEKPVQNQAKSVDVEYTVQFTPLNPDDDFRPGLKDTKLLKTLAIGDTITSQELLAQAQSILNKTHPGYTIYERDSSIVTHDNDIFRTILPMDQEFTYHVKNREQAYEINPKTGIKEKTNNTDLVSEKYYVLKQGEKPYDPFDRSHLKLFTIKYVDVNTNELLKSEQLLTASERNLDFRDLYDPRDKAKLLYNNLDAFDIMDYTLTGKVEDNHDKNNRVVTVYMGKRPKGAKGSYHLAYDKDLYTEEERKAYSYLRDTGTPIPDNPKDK
Briefly: S. pyogenes streptokinase expression inhibitors, potency, dose response, plasminogen activation absorbance, OD405 (AID 1914).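 Further: secreted streptokinase activity via plasminogen activation per viability signal from cell pellet.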 Format: functional, Streptococcus pyogenes M1 GAS.

Test [4] has as its system Streptococcus sp. 'group A'. Briefly: growth inhibition of control SK(-) GAS strain, dose response, counter-screen for streptokinase expression inhibitor project, luminescence, kanamycin, BacTiterGlo, confirmation (AID 1900). Format: functional, organism-based.
Test [5] in a line: Shn3 3'UTR reporter inhibitors, dose response, cell-based, Clone20 osteoblasts, firefly luciferase, cherry-picked (AID 624132).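 Further: firefly luciferase luminescence from reporter carrying the Shn3 3'UTR in osteoblasts.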 Format: functional.
Test [6] is described as follows: control 3'UTR Renilla luciferase suppression, dose response, counter-screen for Shn3 inhibitor project, cell-based, Clone20-Shn3RL, cherry-picked (AID 624133). Format: functional.
A short description of test [7]: NIH-3T3 fibroblast cytotoxicity, dose response, cytotoxicity control, cell-based, fluorescence, Alamar Blue, secondary assay (AID 2327).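 Further: NIH-3T3 mouse fibroblasts cultured with fluconazole at 8 µg/mL.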 Format: functional.
A short description of test [8]: C. albicans growth with fluconazole, confirmation, fluorescence, retest (AID 2467). Format: functional, cell-based.
Test [9] can be described thus: HepG2 cell cytotoxicity, dose response, cytotoxicity control for Shn3 inhibitor project, CellTiter-Glo, cherry-picked (AID 624134). Format: functional, cell-based. A general note: ATP-based viability assays read luminescence as a measure of living cells.
Test [10] can be described thus: Luminescence Cell-Based Dose Retest to Confirm Inhibitors of Cancer Stem Cells. [Related pubchem assays (depositor defined):AID2717, AID2721]. Format: functional. Particulars: Homo sapiens.
Test [11] in a line: inhibitors of firefly luciferase expression or activity, dose response, H4 neuroglioma cells, luminescence (AID 1990). Format: functional, cell-based.
The nature of test [12]: inhibitors of SNCA 5'UTR-driven reporter translation, confirmation, H4 neuroglioma cells, luminescence (AID 1988). Format: functional, cell-based.
Test [13] in a line: Luminescence Cell-Based Dose Response HTS to Identify Inhibitors of 5'UTR Stem-Loop Driven Prion Protein mRNA Translation in H4 Neuroglioblastoma Cells. [Related pubchem assays: 1827 (Project Summary), 1813 (Primary HTS)]. Format: functional.
The test system of a further test is INS1. Briefly: beta cell apoptosis inhibitors, cytokine rescue, dose response, luminescence, retest (AID 449756).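 Further: cell death triggered by IL-1 beta plus TNF-alpha plus IFN-gamma mixture; protective hits raise ATP signal compared with cytokine alone wells.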 Format: functional, cell-based. Particulars: Rattus norvegicus.
Test [14] has as its target T2, Heat shock factor protein 1. Briefly: inhibition of MG132-induced HSE-luciferase signal, confirmation, cell-based, NIH3T3, luminescence, dose retest (AID 2382).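 Further: NIH3T3 fibroblasts with HSF1-driven luciferase reporter stressed by proteasome inhibitor MG132; luminescence from HSF1-driven luciferase expression after 8 hours of MG132 stress.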 Format: functional.

As for `CC(=O)C1(O)CCC2C3CC(C)C4=CC(=O)C=CC4(C)C3(F)C(O)CC21C` (stereo unspecified), the IC50 in test [1] is > 47.1 µM (inactive). For the same molecule, in test [2], the EC50 was > 53 µM (inactive).
With `COc1ccc(-c2cn3cc(C)ccc3n2)cc1OC`, the EC50 in test [3] was > 260 µM (inactive).
Regarding `COc1ccc(CCNC(=O)COc2ccc(N(C)S(=O)(=O)c3ccc(C)cc3)cc2)cc1OC`, the IC50 in [1] is > 47.1 µM (inactive). Also, the EC50 in test [2] was > 53 µM (inactive).
Regarding `Cc1cccc(C)c1OC1(c2ccccc2)OC(=O)c2ccccc21` (stereo unspecified), the EC50 is > 150 µM (not active) with Streptococcus, 12.2 µM (active) on Streptokinase A and 18.4 µM (active) in test [4].
On to `CCc1nc2c3cnn(-c4cc(Cl)ccc4C)c3ncn2n1`, for which the EC50 (in the test on Streptococcus; on Streptokinase A; in test [4]) was > 150 µM (not active) each time.
As to `NC(=O)CCN1CCN(CCOC2Cc3cc(Cl)ccc3Sc3ccccc32)CC1` (stereo unspecified), in test [3], the EC50 is > 260 µM (inactive).
As for `CCC1(c2ccc(F)cc2)NC(=O)N(CC(=O)N2CCc3ccccc32)C1=O` (stereo unspecified), the EC50 in test [2] was 11 µM (active).
With `COc1cc(OC)cc(C(=O)Nc2nnc(NC(=S)Nc3ccccc3)s2)c1`, at Streptokinase A, the EC50 is > 150 µM (not active).
Turning to `CC12CC(O)C3c4ccc(O)cc4CCC3C1CCC2=O` (stereo unspecified), the values for the AC50 in test [5] and in test [6] were > 70 µM (inactive) and 26.8 µM (active), respectively.
Take `O=C(N/N=C/c1cc(Br)c(Br)o1)c1ccc2c(c1)OCCO2`: the EC50 in test [7] was > 150 µM (inconclusive); in [8] it was 3.24 µM (active).
Turning to `CN(C/C=C/C#CC(C)(C)C)Cc1cccc2ccccc12` [TERBINAFINE HYDROCHLORIDE], the EC50 in test [7] was > 160 µM (inactive); in [8], 2.94 µM (inconclusive).
Regarding `CC[C@H](C)[C@H]1O[C@]2(CC[C@@H]1C)C[C@@H]1C[C@@H](CC=C(C)[C@@H](O[C@H]3C[C@H](OC)[C@@H](O[C@H]4C[C@H](OC)[C@@H](O)[C@H](C)O4)[C@H](C)O3)[C@@H](C)C=CC=C3CO[C@@H]4[C@H](O)C(C)=C[C@@H](C(=O)O1)[C@]34O)O2`, the AC50 – broadly, the midpoint of the concentration-response curve, whichever way the signal moves – in test [9] was 31.2 µM (active); in test [5] it was 6.32 µM (active); in test [10] it was 1.22 µM (active); in test [6], 20.3 µM (active).
For `Cc1cc(F)ccc1NCc1cc2c(cc1[N+](=O)[O-])OCO2`, in [3], the EC50 is > 260 µM (inactive).
As for `COc1ccc(NP(=O)(Oc2ccc(Cl)cc2)Oc2ccc(Cl)cc2)cc1OC`, the EC50 in the test on Streptococcus was 16.3 µM (active); on Streptokinase A it was 21.1 µM (active); in test [4], 12.4 µM (active).
For the molecule `CCO/C(O)=C1\C(C)=Nc2nc3ccccc3n2C1c1ccncc1` (stereo unspecified), the EC50 is > 260 µM (inactive) in test [3], > 120 µM (not active) in test [11], > 120 µM (not active) in test [12] and > 120 µM (not active) in test [13].
For `O=C(NCc1cccnc1)c1ccc(-c2ccc(F)c(F)c2)c2ccoc12`, the AC50 in [9] was 6.48 µM (active); in [5], 3.48 µM (active); in test [6], 4.19 µM (active).
With `CCOC(=O)c1cc(C#N)c(N2CCN(c3ccc(OC)cc3)CC2)nc1O`, the EC50 in test [7] is > 150 µM (inconclusive); in test [8], 0.046 µM (active).
Regarding `Cc1ccc2[nH]c(SCC(=O)NCc3ccc(F)cc3)nc2c1`, the EC50 in test [3] was > 260 µM (inactive).
On to `CCOC(=O)c1ccc(NC(=O)c2sc3nc4n(c(=O)c3c2C)CCC4)cc1`, for which the values for the EC50 (in the test on Streptococcus; on Streptokinase A; in test [4]) were 20.2 µM (active), > 150 µM (not active) and 1.48 µM (active), respectively.
In the same order, the values of `Cc1ccc(CN2CC(C(=O)Nc3nnc(SCc4c(Cl)cccc4Cl)s3)CC2=O)cc1` (stereo unspecified) are 37.2 µM (active), 5.57 µM (active) and 4.07 µM (active).
As to `Cc1ccc(S(=O)(=O)N2CCN(c3ncnc4sccc34)CC2)cc1`, the AC50 in [9] is 6.76 µM (active); in [5], 2.72 µM (active); in the test with INS1, 5.64 µM (active); in test [6], 5.22 µM (active).
Take `Cn1cc([N+](=O)[O-])c(C(=O)Nc2ccc(-c3nc4ccccc4[nH]3)cc2)n1`: in [3], the EC50 was 32 µM (active).
As to `COc1ccc2nc(N3C(=O)CNC3=S)sc2c1`, the EC50 in the test on Streptococcus was > 150 µM (not active); at Streptokinase A, > 150 µM (not active); in test [4], 3.47 µM (active).
For the molecule `O=[N+]([O-])c1cc2c(c(CSc3nnc(Nc4ccccc4)s3)c1)OCOC2`, the AC50 in test [9] was 55.6 µM (active); in test [5], 3.62 µM (active); in [6] it was 9.43 µM (active).
For `Cc1csc(NC(=O)c2c(O)c3c(n(CC(C)C)c2=O)CCCC3)n1`, the results for the EC50 (with Streptococcus; on Streptokinase A; in [4]) were 17.3 µM (active), > 150 µM (not active) and 11 µM (active), respectively.
As for `O=C(NCCNC(=O)C(c1ccccc1)c1ccccc1)c1ccco1`, the EC50 in test [7] was > 150 µM (inactive); in test [8], > 38 µM (not active).
Take `COCC1CCCCN1C(=O)c1cc(COc2ccc3ncccc3c2)on1` (stereo unspecified): the AC50 in [9] was 28.9 µM (active); in test [5], 0.33 µM (active); with INS1, 3.15 µM (active); in test [6], 3.12 µM (active). Further, the EC50 in test [14] is listed as > 195 µM (not active).
`COCCCNC(=S)NNC(=S)Nc1cccc(Cl)c1`: the EC50 at Streptokinase A was > 150 µM (not active).
As to `CCCCCCNC(=O)C(C#N)c1nc2ccccc2nc1N1CCCC1` (stereo unspecified), the EC50 in [2] is 5.12 µM (active).
As to `CCCCCCCCCc1nc2sc3c(c2c(=O)n1NC(=O)c1ccc([N+](=O)[O-])cc1)CC(C)(C)OC3`, the values for the EC50 (in the test with Streptococcus; at Streptokinase A; in test [4]) were 39.8 µM (active), 2.17 µM (active) and 3.71 µM (active), respectively.
Regarding `CCOc1ncccc1C(=O)NCCc1c[nH]c2ccccc12`, the EC50 in test [3] was > 260 µM (inactive).
